The source of these data is ChEMBL document CHEMBL3045006, “Synthesis and anticonvulsant activity of 8-alkoxy-5,6-dihydro-4H-benzo[f][1,2,4]triazolo[4,3-a]azepine derivatives” (Med Chem Res, 2012).

Active and inactive are the calls of the source. The rule behind the calls is not given here.

For data set [1], the system named is Mus musculus. Briefly: Protective index, ratio of TD50 for Mus musculus Swiss (mouse) to ED50 for Mus musculus Swiss (mouse) by subcutaneous pentylenetetrazole-induced seizure test. It is filed as functional.
The species entered for data set [2] is Mus musculus. Briefly: Protective index, ratio of TD50 for Mus musculus Swiss (mouse) to ED50 for Mus musculus Swiss (mouse) by maximal electroshock-induced seizure test. It is filed as functional. In general terms: In the maximal electroshock model the usual endpoint is tonic extension of the hind limbs.
The nature of data set [3]: (§1) Neurotoxicity in ip dosed Mus musculus Swiss (mouse) assessed as minimum motor impairment by rotarod test. It is filed as toxicity, organism-based. Conditions: Swiss, in vivo. On the technique in general: The rotarod test checks motor coordination on a turning rod.
For data set [4], the system named is Mus musculus. The data set can be described thus: Anticonvulsant activity against subcutaneous pentylenetetrazole-induced seizures in ip dosed Mus musculus Swiss (mouse) at 30 mg/kg, ip measured at phase 2. It is filed as functional. Conditions: sc.
Data set [5] deals with Mus musculus. Briefly: Anticonvulsant activity against maximal electroshock-induced seizures in ip dosed Mus musculus Swiss (mouse) administered 30 min before MES induction measured at phase 2. In kind it is functional.
The test system of data set [6] is Mus musculus. The data set can be described thus: Anticonvulsant activity against subcutaneous pentylenetetrazole-induced seizures in Mus musculus Swiss (mouse) at 100 mg/kg, ip measured at phase 1. It is filed as functional, organism-based. Further details: dose 100 mg/kg.
In data set [7] the test system is Mus musculus. The data set can be described thus: Anticonvulsant activity against maximal electroshock-induced seizures in Mus musculus Swiss (mouse) at 30 mg/kg, ip administered 30 min before MES induction measured at phase 1. Further details: dose 30 mg/kg. In kind it is functional, organism-based.
Data set [8] relates to Mus musculus. The data set can be described thus: Anticonvulsant activity against subcutaneous pentylenetetrazole-induced seizures in Mus musculus Swiss (mouse) at 30 mg/kg, ip measured at phase 1. Further details: dose 30 mg/kg. In kind it is functional, organism-based.
The test system of data set [9] is Mus musculus. Briefly: Anticonvulsant activity against maximal electroshock-induced seizures in Mus musculus Swiss (mouse) at 300 mg/kg, ip administered 30 min before MES induction measured at phase 1. It is filed as functional, organism-based. Further details: dose 300 mg/kg.
Data set [10] relates to Mus musculus. Briefly: Anticonvulsant activity against maximal electroshock-induced seizures in Mus musculus Swiss (mouse) at 100 mg/kg, ip administered 30 min before MES induction measured at phase 1. In kind it is functional, organism-based. Further details: dose 100 mg/kg.
The test system of data set [11] is Mus musculus. Described as §1. Conditions: in vivo. It is filed as toxicity, organism-based.

For `CCCCOc1ccc2c(c1)CCCc1nncn1-2`, the “Ratio TD50/ED50” value with Mus musculus [1] amounted to 2; in the data set listed under Mus musculus [2], 3.5. Moreover, in data set [3], the TD50 (in general, the 50% point of the dose-response relation for the toxic effect studied) was 73.3 mg/kg. The median effective dose (ED50) (in general, the dose that gives a 50% effect, or the effect in half of the subjects) with Mus musculus [4] was 36.7 mg/kg; in the data set on Mus musculus [5], 21.2 mg/kg. The outcome with Mus musculus [6] and with Mus musculus [7] was Active.
With `CCCCCCOc1ccc2c(c1)CCCc1nncn1-2`, the “Ratio TD50/ED50” value in the data set with Mus musculus [1] came out at 3.4; in the data set listed under Mus musculus [2], 4.8. In addition, in [3], the TD50 is 84.2 mg/kg. The ED50 is 24.6 mg/kg in the data set with Mus musculus [4] and 17.7 mg/kg with Mus musculus [5]. For the same compound, the result in the data set on Mus musculus [7] was Active.
In the data set on Mus musculus [4], `CCCC(CCC)C(=O)O` [VALPROIC ACID] returned a median effective dose (ED50) of 149 mg/kg.
`CCC1(c2ccccc2)C(=O)NC(=O)NC1=O` [PHENOBARBITAL]: the median effective dose (ED50) was found to be 13.2 mg/kg in the data set on Mus musculus [4] and 21.8 mg/kg in the data set on Mus musculus [5].
Consider `CCCCCCCOc1ccc2c(c1)CCCc1nncn1-2`, for which the entries for the “Ratio TD50/ED50” value with Mus musculus [1] and in the data set filed under Mus musculus [2] were 2.6 and 3.5, respectively. Besides, the TD50 in [3] amounted to 68.4 mg/kg. In addition, the ED50 was found to be 26.4 mg/kg in the data set with Mus musculus [4] and 19.7 mg/kg in the data set with Mus musculus [5]. Moreover, the outcome with Mus musculus [6] and in the data set with Mus musculus [7] was Active.
Consider `CCCCCOc1ccc2c(c1)CCCc1nncn1-2`, for which the entries for the “Ratio TD50/ED50” value with Mus musculus [1] and in the data set listed under Mus musculus [2] were 5.4 and 6.5, respectively. In addition, the TD50 in data set [3] is 114 mg/kg. Besides, the ED50 turned out to be 21.2 mg/kg with Mus musculus [4] and 17.5 mg/kg in the data set with Mus musculus [5]. Moreover, the outcome in the data set with Mus musculus [8] and with Mus musculus [7] was Active.
As for `COc1ccc2c(c1)CCCc1nncn1-2`, the outcome in the data set with Mus musculus [6] and in the data set with Mus musculus [8] was inactive. Also, the outcome in the data set on Mus musculus [9] and with Mus musculus [7] was Active.
Take `Clc1ccc(COc2ccc3c(c2)CCCc2nncn2-3)cc1`: the figures for the “Ratio TD50/ED50” value with Mus musculus [1] and in the data set filed under Mus musculus [2] were 1.4 and 3.7, respectively. The TD50 in [3] amounted to 98.6 mg/kg. The median effective dose (ED50) in the data set on Mus musculus [4] was determined as 68.2 mg/kg; in the data set with Mus musculus [5] it was 27.4 mg/kg. Besides, the outcome in the data set on Mus musculus [6] and in the data set with Mus musculus [10] was Active. Moreover, in the data set with Mus musculus [8], the result was inactive.
For `Clc1cccc(COc2ccc3c(c2)CCCc2nncn2-3)c1`, the “Ratio TD50/ED50” value in the data set with Mus musculus [1] was found to be 1.5; in the data set listed under Mus musculus [2] it was 4.1. In addition, in data set [3], the TD50 was found to be 120 mg/kg. Also, the results for the ED50 in the data set with Mus musculus [4] and in the data set on Mus musculus [5] were 80.7 mg/kg and 29.5 mg/kg, respectively. Further, the result in the data set on Mus musculus [6] and in the data set with Mus musculus [10] was Active. Moreover, the outcome with Mus musculus [8] was inactive.
Regarding `Fc1cccc(COc2ccc3c(c2)CCCc2nncn2-3)c1`, the TD50 in data set [3] is more than 100 mg/kg. For the same compound, the ED50 in the data set with Mus musculus [4] was more than 100 mg/kg; in the data set with Mus musculus [5], 27.4 mg/kg. Besides, the result with Mus musculus [6] and with Mus musculus [10] was Active. Besides, the outcome with Mus musculus [8] was inactive.
Turning to `CCCOc1ccc2c(c1)CCCc1nncn1-2`, the TD50 entry in the data set on Mus musculus [11] is “Not Active”. The 50% effective dose (ED50) was more than 100 mg/kg with Mus musculus [4] and 73.3 mg/kg with Mus musculus [5]. In addition, the outcome in the data set with Mus musculus [6] and in the data set on Mus musculus [8] was inactive. Besides, in the data set with Mus musculus [10], the outcome was Active.
The compound `O=C1NC(=O)C(c2ccccc2)(c2ccccc2)N1` [PHENYTOIN] returned an ED50 in the data set on Mus musculus [4] of more than 300 mg/kg.
For the compound `c1ccc(COc2ccc3c(c2)CCCc2nncn2-3)cc1`, the entries for the “Ratio TD50/ED50” value with Mus musculus [1] and in the data set listed under Mus musculus [2] were 1 and 3.3, respectively. Further, the TD50 in data set [3] was 78.9 mg/kg. Also, the ED50 in the data set with Mus musculus [4] came out at 78.9 mg/kg; in the data set with Mus musculus [5], 23.7 mg/kg. Besides, the outcome in the data set with Mus musculus [6] and in the data set on Mus musculus [7] was Active. For the same compound, the outcome in the data set with Mus musculus [8] was inactive.
For the compound `NC(=O)N1c2ccccc2C=Cc2ccccc21` [CARBAMAZEPINE], the figures for the ED50 in the data set with Mus musculus [4] and in the data set on Mus musculus [5] were more than 100 mg/kg and 8.8 mg/kg, respectively.
As for `Clc1ccccc1COc1ccc2c(c1)CCCc1nncn1-2`, the “Ratio TD50/ED50” value in the data set on Mus musculus [1] was less than 0.7; in the data set filed under Mus musculus [2], 3.4. In data set [3], the TD50 stood at 70.9 mg/kg. The ED50 in the data set with Mus musculus [4] is more than 100 mg/kg; with Mus musculus [5] it was 20.5 mg/kg. Besides, the result in the data set on Mus musculus [6] and in the data set on Mus musculus [8] was inactive. Besides, the outcome with Mus musculus [7] was Active.
On to `Fc1ccc(COc2ccc3c(c2)CCCc2nncn2-3)cc1`, for which the “Ratio TD50/ED50” value in the data set on Mus musculus [1] was found to be 2.1; in the data set listed under Mus musculus [2], 3.6. Also, the TD50 in [3] came out at 97.4 mg/kg. Also, the ED50 with Mus musculus [4] was 47.3 mg/kg; in the data set with Mus musculus [5], 27.4 mg/kg. For the same compound, the outcome in the data set on Mus musculus [6] and in the data set with Mus musculus [10] was Active.
With `Cc1ccc(COc2ccc3c(c2)CCCc2nncn2-3)cc1`, the “Ratio TD50/ED50” value in the data set with Mus musculus [1] turned out to be 1.1; in the data set listed under Mus musculus [2], 3.6. Further, in data set [3], the TD50 is 82.9 mg/kg. Besides, the ED50 in the data set on Mus musculus [4] was determined as 90.1 mg/kg; in the data set on Mus musculus [5], 27.4 mg/kg. In addition, the outcome in the data set with Mus musculus [6] and with Mus musculus [8] was inactive. In the data set with Mus musculus [10], the outcome was Active.
On to `Brc1ccc(COc2ccc3c(c2)CCCc2nncn2-3)cc1`, for which the “Ratio TD50/ED50” value is 0.9 in the data set on Mus musculus [1] and 3 in the data set listed under Mus musculus [2]. The TD50 in data set [3] was found to be 96.2 mg/kg. The values for the ED50 in the data set on Mus musculus [4] and in the data set on Mus musculus [5] were more than 100 mg/kg and 27 mg/kg, respectively. Also, the result in the data set on Mus musculus [6] and in the data set with Mus musculus [10] was Active. The result in the data set with Mus musculus [8] was inactive.
With `Fc1ccccc1COc1ccc2c(c1)CCCc1nncn1-2`, the “Ratio TD50/ED50” value in the data set with Mus musculus [1] amounted to 2.4; in the data set listed under Mus musculus [2], 4.5. Also, the TD50 in data set [3] was 84.9 mg/kg. Further, the figures for the ED50 with Mus musculus [4] and in the data set on Mus musculus [5] were 35.4 mg/kg and 19 mg/kg, respectively. Moreover, the result with Mus musculus [6] and in the data set on Mus musculus [7] was Active.
